Measured values reported in patent publication US20260133182A1, “METHOD OF DETERMINING FUSOGENIC POTENTIAL OF SPERM AND USE THEREOF IN ASSISTED FERTILIZATION AND DRUG SCREENING” (Technion Research & Development Foundation Limited, priority 2023, published 2026).

Tested on: BHK cells expressing JUNO co-incubated with capacitated mouse sperm
Assay: Sperm-to-BHK fusion and multinucleation
Format: cell-based, hamster
Details: JUNO-transfected BHK cells + mouse sperm
Experimental: In this study, the present inventors used BHK cells (Cat #CCL-10; ATCC, RRID: CVCL_1915) which were grown and maintained in DMEM containing 10% FBS. Cells were cultured at 37° C. in 5% CO2. Plasmids were transfected into cells using 2 μl jetPRIME (PolyPlus-transfection) per μg of DNA in 100 μl of reaction buffer for every ml of medium.
Sperm were recovered by incising the cauda epididymis, obtained from adult male mice, in 300 μl of mHTF medium (Kito et al. 2004) supplemented with 4 mg/ml of BSA. The sperm were diluted in fresh medium to a concentration of 5×10^6 cells/ml and incubated for 90 min at 37° C. and 5% CO2 to induce capacitation.
BHK cells were grown on 24-well glass bottom tissue-culture plates. 24 h after plating, cells were transfected with 0.25 μg pcDNA 3.1 -EGFP-MBD-nls plasmids and 0.5 μg of either pCI::H2B-RFP or pCI::JUNO::H2B-RFP. […] Multinucleation percentage was determined as the ratio between the number of nuclei in multinucleated cells (NuM) and the total number of nuclei fluorescent cells (NuF), as follows: % of multinucleation=(NuM/NuF)×100. 500 nuclei (NuF) were counted in each independent repetition (experimental point). In some cases, the number of sperm fused was determined by evaluating the transfer of EGFP-MBD-nls signal from the BHK cell to the sperm nuclei (number of fused sperm/500 BHK cells). […]

| SMILES | multinucleation (% of multinucleation) (20 μM FdUdr) | levels of multinucleation (% of multinucleation) (4 h, 200 μg/ml cycloheximide vs control) |
| --- | --- | --- |
| O=c1[nH]c(=O)n([C@H]2C[C@H](O)[C@@H](CO)O2)cc1F [FdUdr, 5-fluoro-2′-deoxyuridine] | does not inhibit |  |
| C[C@@H]1C[C@@H]([C@H](O)CC2CC(=O)NC(=O)C2)C(=O)[C@@H](C)C1 [cycloheximide] |  | no differences |
